In one data set the target is T1, MAO B (Homo sapiens, UniProt P27338).
T1 construct: investigated on human brain sections from patients with Alzheimer's disease and normal controls; from tissue; host or cells: human brain sections (Alzheimer's disease patients and normal controls)
T1 sequence (P27338 1-520): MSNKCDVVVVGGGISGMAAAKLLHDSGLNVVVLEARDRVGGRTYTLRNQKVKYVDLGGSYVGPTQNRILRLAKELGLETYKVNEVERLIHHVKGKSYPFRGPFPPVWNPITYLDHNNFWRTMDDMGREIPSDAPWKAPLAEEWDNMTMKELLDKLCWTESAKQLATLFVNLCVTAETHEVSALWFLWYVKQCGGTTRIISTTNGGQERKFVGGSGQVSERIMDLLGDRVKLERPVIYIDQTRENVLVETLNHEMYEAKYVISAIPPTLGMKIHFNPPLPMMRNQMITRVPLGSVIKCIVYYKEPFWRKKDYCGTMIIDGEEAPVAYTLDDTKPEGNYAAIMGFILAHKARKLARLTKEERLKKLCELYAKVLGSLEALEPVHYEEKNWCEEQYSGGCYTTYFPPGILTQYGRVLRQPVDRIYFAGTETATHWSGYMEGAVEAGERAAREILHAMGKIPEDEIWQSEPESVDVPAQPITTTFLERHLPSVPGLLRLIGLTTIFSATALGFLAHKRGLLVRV
The data set is described as follows: Autoradiography of [^18F]compound 13 on human brain sections (Alzheimer's disease), blocking with MAO B inhibitors. The format is binding. The protocol:
Thereafter, the slides were removed and brought to room temperature. […] The sections were dipped two times into ice cold distilled water, dried at room temperature and exposed to PhosphorImanger plates (FUJI BAS 5000) over night. For detection of the specificity of the signals an excess (10 μM) of Deprenyl, Pargylin (both for MAO B) and Clorgyline (for MAO A), respectively, was used. After exposure, the sections were immunohistochemically stained using a standard protocol with an anti-GFAP antibody to detect reactive astrocytes. Amyloid B plaques were detected with BAY 949172 (Rowe CC et al. Lancet Neutol 2008; 7: 129-135) using the binding protocol as described above.

Data set [1] in a line: Biodistribution in NMRI mice (gamma counter). It is filed as in vivo. The conditions noted are these: 0.178 MBq injected, decay corrected. On the procedure:
For each time point 3 mice have been used. The mice were injected each with 0.178 MBq[^18F]compound 13. After the respective time points the mice were sacrificed, the organs taken out and measured in a gamma counter. The results were decay corrected.

A short description of data set [2]: PET brain uptake (time activity curves, SUV) in cynomolgus monkey. The conditions noted are these: same monkey.
Data set [3] in a line: Plasma radioactivity and plasma metabolites in cynomolgus monkey. The format is in vivo. The text has this:
Plasma radioactivity profiles have been monitored over time. […] In addition, metabolites occurring in plasma over time have been monitored (FIGS. 8 and 9) for both ligands.

For data set [4] the following is noted: reported in the literature; cited from earlier work.

“Also recorded” adds a separate entry of the source.

`C#CCN(C)[C@H](C[18F])Cc1ccccc1` [[^18F]compound 13, N-[(2S)-1-(^18F)fluoro-3-phenylpropan-2-yl]-N-methylprop-2-yn-1-amine]: the “relation of autoradiographic signal density and intensity to amyloid β pathology” value on MAO B (Alzheimer's disease brain slices, amyloid detected with BAY 949172) was “corresponds with the amyloid β plaque load”. Moreover, the “autoradiographic signal blocked with deprenyl” value on MAO B (human Alzheimer's disease brain slices, 10 Bq/μl tracer, excess (10 μM) of Deprenyl) is given as “could be blocked; also recorded: completely blocked”. Besides, at MAO B (human Alzheimer's disease brain slices, 10 Bq/μl tracer, excess (10 μM) of Pargylin), the “autoradiographic signal blocked with pargylin” value is on record as “could be blocked”. Also, on MAO B (human brain slice from a patient with AD, anti-GFAP staining), the “relation of autoradiographic signal to reactive astrocytes (GFAP immunoreactivity)” value is on record as “correspondence of the autoradiographic signal to reactive astrocytes is demonstrated”. In data set [1] (2 min p.i.), the “brain uptake of radioactivity” value was 7.5 ± 0.04 % ID/g. In addition, the radioactivity in brain in data set [1] (30 min p.i.) was found to be 2.10±0.33 % ID/g; in data set [1] (after 4 hours), 1.34±0.26 % ID/g. The “uptake and enrichment in specific regions, e.g. striatum, higher than [^11C]Deprenyl” value in data set [2] is on record as “about 10%”. For the same molecule, the “metabolic stability compared to [^11C]Deprenyl (and compound 5)” value in data set [3] (plasma metabolites) was “improved metabolic stability; also recorded: more stable”. In addition, the “generation of metabolite b in plasma (level)” value in data set [3] (plasma over time) is reported as “around 10%”.

On to `C#CCN(C)CCCCCC[18F]` [compound 5], for which, in data set [4], the degradation to metabolite entry was “degraded quickly towards a polar [^18F]-labelled metabolite”.
